The values below come from patent US20210040062A1, “AZOLE-SUBSTITUTED PYRIDINE COMPOUND” (TAISHO PHARMACEUTICAL CO., LTD., priority 2016, published 2021).

One assay deals with T1, human CYP4F2 (Homo sapiens, UniProt P78329).
T1 construct: host or cells: Escherichia coli (membrane fraction)
T1 sequence (P78329 5-520): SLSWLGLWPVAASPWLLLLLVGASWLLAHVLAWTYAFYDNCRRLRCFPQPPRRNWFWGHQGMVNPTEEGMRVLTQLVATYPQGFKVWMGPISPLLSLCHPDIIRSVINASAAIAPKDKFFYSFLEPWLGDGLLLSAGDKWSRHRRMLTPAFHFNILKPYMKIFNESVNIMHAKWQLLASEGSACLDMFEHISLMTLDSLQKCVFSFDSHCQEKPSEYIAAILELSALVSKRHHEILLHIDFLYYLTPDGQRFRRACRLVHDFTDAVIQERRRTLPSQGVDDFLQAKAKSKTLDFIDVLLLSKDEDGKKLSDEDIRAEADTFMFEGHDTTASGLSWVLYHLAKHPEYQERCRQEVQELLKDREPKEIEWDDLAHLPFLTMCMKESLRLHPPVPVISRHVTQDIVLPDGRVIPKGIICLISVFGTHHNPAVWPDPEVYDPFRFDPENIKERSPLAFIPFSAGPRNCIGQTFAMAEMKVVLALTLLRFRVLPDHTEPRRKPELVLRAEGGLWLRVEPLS
The assay can be described thus: CYP4F2 inhibition test (Test Example 1). Format: biochemical. Particulars: Escherichia coli membrane fraction expressing human CYP4F2, 2.5 μM luciferine derivative, room temperature 60 minutes, luminescence. The essentials: (§1)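 E. coli membranes expressing human enzyme (100 μg/mL protein) with luciferin-derivative substrate, 60 min at room temperature, then luminescence read. CYP4F2: 50 mM KPO4 pH 7.4, 2.5 μM substrate, 1 mM NADPH. CYP4A11: 100 mM Tris-HCl pH 7.5, 60 μM substrate, NADP+/glucose 6-phosphate regenerating system.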

The target in a further assay is T2, human CYP4A11 (Homo sapiens, UniProt Q02928).
T2 construct: host or cells: Escherichia coli (membrane fraction)
T2 sequence (Q02928 5-519): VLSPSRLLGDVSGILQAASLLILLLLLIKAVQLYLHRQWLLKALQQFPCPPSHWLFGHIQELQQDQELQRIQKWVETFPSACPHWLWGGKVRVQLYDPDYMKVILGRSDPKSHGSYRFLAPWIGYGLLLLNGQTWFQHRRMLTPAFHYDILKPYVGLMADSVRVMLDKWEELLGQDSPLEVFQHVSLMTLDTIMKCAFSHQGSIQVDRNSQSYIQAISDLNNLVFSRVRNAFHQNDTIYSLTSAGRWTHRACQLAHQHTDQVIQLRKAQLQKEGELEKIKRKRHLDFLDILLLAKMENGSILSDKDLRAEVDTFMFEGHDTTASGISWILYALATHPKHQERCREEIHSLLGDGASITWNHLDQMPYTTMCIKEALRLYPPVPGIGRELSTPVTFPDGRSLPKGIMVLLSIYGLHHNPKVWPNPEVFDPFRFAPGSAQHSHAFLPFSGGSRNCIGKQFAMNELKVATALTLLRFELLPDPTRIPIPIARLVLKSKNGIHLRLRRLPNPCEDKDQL
The assay can be described thus: CYP4A11 inhibition test (Test Example 1). Type of assay: biochemical. Particulars: Escherichia coli membrane fraction expressing human CYP4A11, 60 μM luciferine derivative, room temperature 60 minutes, luminescence. In short, it runs like this: as §1

pIC50: −log10 of the molar value.

What is called pIC50 is the negative decadic logarithm of the IC50, by convention in mol/L. On to `O=C(CC1CCOCC1)NCCC(=O)N1CCC[C@@H](COc2ccc(-c3ccn[nH]3)nc2)C1` [Example 4-6], for which the results for the pIC50 against human CYP4F2 and against human CYP4A11 were 7.11 and 6.47, respectively.

As to `CC(C)(O)CC(=O)NCCC(=O)N1CCC[C@@H](COc2ccc(-c3ccn[nH]3)nc2)C1` [Example 4-7], the results for the pIC50 against human CYP4F2 and on human CYP4A11 were 6.64 and 6.42, respectively.

Regarding `O=C(NCCC(=O)N1CCC[C@@H](COc2ccc(-c3ccn[nH]3)nc2)C1)C1CCC1` [Example 4-8], the negative-log IC50 (pIC50) against human CYP4F2 was 7.37; against human CYP4A11 it was 7.04.

As for `O=C(NCCC(=O)N1CCC[C@@H](COc2ccc(-c3ccn[nH]3)nc2)C1)C1CC(F)(F)C1` [Example 4-9], the negative-log IC50 (pIC50) was 7.80 against human CYP4F2 and 7.01 against human CYP4A11.

Regarding `O=C(NCCC(=O)N1CCC[C@@H](COc2ccc(-c3ccn[nH]3)nc2)C1)C1CCCC1` [Example 4-10], the figures for the negative-log IC50 (pIC50) against human CYP4F2 and against human CYP4A11 were 7.70 and 7.25, respectively.

`CC(C)NC(=O)N1CCC(COc2ccc(-c3ccn[nH]3)nc2)CC1` [Example 5-1, N-(Propan-2-yl)-4-({[6-(1H-pyrazol-5-yl)pyridin-3-yl]oxy}methyl)piperidin-1-carboxamide]: the negative-log IC50 (pIC50) was 6.77 on human CYP4F2 and 5.92 against human CYP4A11.

Take `CC(C)NC(=O)N1CCC[C@@H](COc2ccc(-c3ccn[nH]3)nc2)C1` [Example 5-2]: the pIC50 against human CYP4F2 is 6.35; at human CYP4A11 it was 6.29.

In the case of `CC(C)NC(=O)N1CCC[C@H](COc2ccc(-c3ccn[nH]3)nc2)C1` [Example 5-3], the negative logarithm of the IC50 (pIC50) on human CYP4F2 is 6.72; against human CYP4A11, 5.92.

Take `CN(C)C(=O)N1CCC(COc2ccc(-c3ccn[nH]3)nc2)CC1` [Example 6-1, N,N-Dimethyl-4-({[6-(1H-pyrazol-5-yl)pyridin-3-yl]oxy}methyl)piperidin-1-carboxamide]: the negative-log IC50 (pIC50) on human CYP4F2 is 7.72; on human CYP4A11 it was 6.19.

Take `CNC(=O)N1CCC[C@@H](COc2ccc(-c3ccn[nH]3)nc2)C1` [Example 6-3]: the pIC50 is 6.24 on human CYP4F2 and 6.35 against human CYP4A11.

On to `CNC(=O)N1CCC[C@H](COc2ccc(-c3ccn[nH]3)nc2)C1` [Example 6-4], for which the negative-log IC50 (pIC50) against human CYP4F2 was 6.96; on human CYP4A11 it was 5.96.

Regarding `O=C(N1CCC(COc2ccc(-c3ccn[nH]3)nc2)CC1)N1CCCS1(=O)=O` [Example 6-5], the pIC50 against human CYP4F2 is 6.14; against human CYP4A11, 5.70.

Consider `O=C(N1CCC1)N1CCC(COc2ccc(-c3ccn[nH]3)nc2)CC1` [Example 7-1, (Azetidin-1-yl)[4-({[6-(1H-pyrazol-5-yl)pyridin-3-yl]oxy}methyl)piperidin-1-yl]methanone], for which the pIC50 is 7.66 at human CYP4F2 and 6.10 against human CYP4A11.

Take `O=C(N1CCC(COc2ccc(-c3ccn[nH]3)nc2)CC1)N1CC(F)C1` [Example 7-2]: the pIC50 on human CYP4F2 was 7.54; against human CYP4A11 it was 5.96.

Take `O=C(NC1CC1)N1CCC(COc2ccc(-c3ccn[nH]3)nc2)CC1` [Example 8-1, N-Cyclopropyl-4-({[6-(1H-pyrazol-5-yl)pyridin-3-yl]oxy}methyl)piperidin-1-carboxamide]: the pIC50 at human CYP4F2 is 6.96; at human CYP4A11 it was 5.82.

With `CN(C(=O)N1CCC(COc2ccc(-c3ccn[nH]3)nc2)CC1)C1CC1` [Example 8-2, N-Cyclopropyl-N-methyl-4-({[6-(1H-pyrazol-5-yl)pyridin-3-yl]oxy}methyl)piperidin-1-carboxamide], the negative logarithm of the IC50 (pIC50) against human CYP4F2 was 7.05; against human CYP4A11, 6.03.

Consider `CNC(=O)N1CCC(CCOc2ccc(-c3ccn[nH]3)nc2)CC1` [Example 9-1, N-Methyl-4-(2-{[6-(1H-pyrazol-5-yl)pyridin-3-yl]oxy}ethyl)piperidine-1-carboxamide], for which the negative-log IC50 (pIC50) is 7.13 at human CYP4F2 and 6.51 against human CYP4A11.

Regarding `CN(C)C(=O)N1CCC(CCOc2ccc(-c3ccn[nH]3)nc2)CC1` [Example 9-2], the negative-log IC50 (pIC50) against human CYP4F2 was 7.20; against human CYP4A11, 6.43.

Take `CC(C)NC(=O)N1CCC(CCOc2ccc(-c3ccn[nH]3)nc2)CC1` [Example 9-3]: the pIC50 is 6.82 at human CYP4F2 and 6.44 at human CYP4A11.
